Common to all, as to assay type: biochemical
In one assay the target is T1, matriptase (Homo sapiens, UniProt Q9Y5Y6).
T1 construct: purchased R&D Systems 3946-SEB-010
T1 sequence (Q9Y5Y6 615-855 limits assumed): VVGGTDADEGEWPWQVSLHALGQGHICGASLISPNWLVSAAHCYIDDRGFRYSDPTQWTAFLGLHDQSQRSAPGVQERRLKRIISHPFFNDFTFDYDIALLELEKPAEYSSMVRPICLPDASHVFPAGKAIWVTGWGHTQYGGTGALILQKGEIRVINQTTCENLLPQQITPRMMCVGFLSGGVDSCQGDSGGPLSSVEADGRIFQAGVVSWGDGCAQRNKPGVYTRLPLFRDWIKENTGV
Nature of the assay: Fluorogenic kinetic enzyme inhibitor assay, matriptase.

In a further assay the target is TMPRSS2 (Homo sapiens, UniProt O15393). Nature of the assay: Fluorogenic kinetic enzyme inhibitor assay, TMPRSS2. On the set-up: purchased Cusabio Technology CSB-YP023924HU.
Sequence of TMPRSS2 (O15393 106-492 limits assumed): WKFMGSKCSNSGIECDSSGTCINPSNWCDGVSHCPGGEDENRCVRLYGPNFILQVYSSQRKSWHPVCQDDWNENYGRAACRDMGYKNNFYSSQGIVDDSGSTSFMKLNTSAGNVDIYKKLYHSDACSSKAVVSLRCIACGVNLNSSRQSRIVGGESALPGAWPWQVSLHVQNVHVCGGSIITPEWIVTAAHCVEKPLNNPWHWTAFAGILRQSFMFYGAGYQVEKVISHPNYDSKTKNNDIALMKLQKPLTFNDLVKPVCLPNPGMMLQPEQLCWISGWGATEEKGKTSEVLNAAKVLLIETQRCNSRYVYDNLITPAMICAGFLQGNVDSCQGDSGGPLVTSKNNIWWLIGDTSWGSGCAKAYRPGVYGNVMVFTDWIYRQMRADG
The next assay concerns the target T2, HGFA (Homo sapiens, UniProt Q04756).
T2 construct: purchased R&D Systems 1514-SE-010
T2 sequence (Q04756 408-655 limits assumed): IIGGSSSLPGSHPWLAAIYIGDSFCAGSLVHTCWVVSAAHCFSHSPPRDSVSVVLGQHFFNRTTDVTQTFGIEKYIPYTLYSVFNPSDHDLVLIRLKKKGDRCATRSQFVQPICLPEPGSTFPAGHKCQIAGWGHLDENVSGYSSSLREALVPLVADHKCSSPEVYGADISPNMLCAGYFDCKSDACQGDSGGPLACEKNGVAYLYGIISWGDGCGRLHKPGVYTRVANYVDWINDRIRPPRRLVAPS
T2 sequence (Q04756 373-407 partner limits assumed): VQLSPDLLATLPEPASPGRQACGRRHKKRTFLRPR
Nature of the assay: Fluorogenic kinetic enzyme inhibitor assay, HGFA.

The next assay addresses T3, Factor Xa (Homo sapiens, UniProt P00742).
T3 construct: TMPRSS2; Matriptase; Hepsin; HGFA; Thrombin; Factor Xa
As to the kind of experiment: Fluorogenic assay, Factor Xa. The following applies: read-out: Factor Xa IC50.

The next assay concerns the target T4, hepsin (Homo sapiens, UniProt P05981).
T4 construct: purchased R&D Systems 4776-SE-010
Nature of the assay: Fluorogenic kinetic enzyme inhibitor assay, hepsin.

[1] abbreviates: 30 min incubation, Boc-QLR-AMC at Km, read-out: HGFA IC50.

Molecules are shown by their SMILES. Read-outs that look alike come from different tables or passages of the source. Where only a bound is given, the exact number is not on record here.

T4 sequence (P05981 163-417 limits assumed): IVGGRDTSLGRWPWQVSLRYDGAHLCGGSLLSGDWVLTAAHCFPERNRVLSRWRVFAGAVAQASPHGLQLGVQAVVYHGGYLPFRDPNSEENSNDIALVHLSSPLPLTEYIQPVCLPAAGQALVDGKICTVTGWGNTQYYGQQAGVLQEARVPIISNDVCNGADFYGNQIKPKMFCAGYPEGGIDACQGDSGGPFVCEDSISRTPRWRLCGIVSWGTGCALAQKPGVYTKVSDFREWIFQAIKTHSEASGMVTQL
T4 sequence (P05981 1-162 partner limits assumed): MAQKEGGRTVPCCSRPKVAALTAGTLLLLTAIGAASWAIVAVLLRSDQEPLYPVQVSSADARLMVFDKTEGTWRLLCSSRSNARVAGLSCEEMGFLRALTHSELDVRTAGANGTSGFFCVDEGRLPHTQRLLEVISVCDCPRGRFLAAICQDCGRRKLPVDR
T3 sequence (P00742 235-488 limits assumed): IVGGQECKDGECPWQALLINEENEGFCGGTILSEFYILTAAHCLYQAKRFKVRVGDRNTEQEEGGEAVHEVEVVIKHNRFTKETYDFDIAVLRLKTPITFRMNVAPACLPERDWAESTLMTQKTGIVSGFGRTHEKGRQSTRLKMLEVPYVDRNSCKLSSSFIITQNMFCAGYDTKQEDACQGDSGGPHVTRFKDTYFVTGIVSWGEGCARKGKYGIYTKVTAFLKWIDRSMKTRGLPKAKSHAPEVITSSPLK
T3 sequence (P00742 41-179 partner limits assumed): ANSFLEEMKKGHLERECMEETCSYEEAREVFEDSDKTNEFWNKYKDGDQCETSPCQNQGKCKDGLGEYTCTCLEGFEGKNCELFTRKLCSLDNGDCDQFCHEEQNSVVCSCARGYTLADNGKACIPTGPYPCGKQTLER

`CC(=O)N1CCC[C@H]1C(=O)N[C@@H](CCC(N)=O)C(=O)N[C@@H](Cc1ccccc1)C(=O)N[C@@H](CCCNC(=N)N)C(=O)c1nc2ccccc2s1` [MM3123, N-[(S)-1-[N-(S)-1-[(1,3-benzothiazol-2-yl)carbonyl]-4-guanidinobutylcarbamoyl]-2-phenylethyl](S)-2-[(S)-1-acetyl-2-pyrrolidinylcarbonylamino] glutaramide]: the IC50 at matriptase (read-out: Matriptase IC50) is 0.316 nM; on TMPRSS2 (read-out: TMPRSS2 IC50), 0.06 nM; on HGFA (read-out: HGFA IC50), 75 nM; at Factor Xa, 199 nM; against hepsin, 0.135 nM.

On to `CC(=O)N[C@@H](CCC(N)=O)C(=O)N[C@@H](Cc1ccccc1)C(=O)N[C@@H](CCCNC(=N)N)C(=O)c1nc2ccccc2s1` [MM3144, N-[(S)-1-[N-(S)-1-[(1,3-benzothiazol-2-yl)carbonyl]-4-guanidinobutylcarbamoyl]-2-phenylethyl](S)-2-acetylaminoglutaramide], for which the IC50 on HGFA (setting [1]) was found to be 14 nM; at Factor Xa, 4.5 nM.

With `CC(=O)N[C@H]1Cc2ccc(cc2)OC/C=C\CNC(=O)CC[C@@H](C(=O)N[C@@H](CCCNC(=N)N)C(=O)c2nc3ccccc3s2)NC(=O)[C@H](CC(C)C)NC1=O` [VD4018, N-[(S)-1-[(1,3-benzothiazol-2-yl)carbonyl]-4-guanidinobutyl]-(4Z,11S,14S,17S)-17-acetylamino-14-isobutyl-8,13,16-trioxo-2-oxa-7,12,15-triazabicyclo[17.2.2]tricosa-1(21),4,19,22-tetraene-11-carboxamide], the IC50 at TMPRSS2 (30 min incubation, Boc-QAR-AMC at Km, read-out: TMPRSS2 IC50) is 2.48 nM; on HGFA (setting [1]), 6500 nM; on Factor Xa it was 12400 nM.

With `CC(=O)N[C@@H](CO)C(=O)N[C@@H](CCCCN)C(=O)N[C@@H](CC(C)C)C(=O)N[C@@H](CCCNC(=N)N)C(=O)c1nc2ccccc2s1` [ZFH7053, N-[(S)-3-methyl-1-[N-(S)-1-[(1,3-benzothiazol-2-yl)carbonyl]-4-guanidinobutylcarbamoyl]butyl](S)-2-[(S)-2-acetylamino-3-hydroxypropionylamino]-6-aminohexanamide], the IC50 was 6.1 nM on matriptase (read-out: Matriptase IC50); 39.2 nM against TMPRSS2; 66 nM at HGFA (setting [1]); 3800 nM at Factor Xa; 0.32 nM on hepsin (read-out: Hepsin IC50).

`CCC(C)[C@H](NC(C)=O)C(=O)N[C@@H](CCC(N)=O)C(=O)N[C@@H](Cc1ccccc1)C(=O)N[C@@H](CCCNC(=N)N)C(=O)c1nc2ccccc2s1` (stereo partly drawn) [MM3116, N-[(S)-1-[N-(S)-1-[(1,3-benzothiazol-2-yl)carbonyl]-4-guanidinobutylcarbamoyl]-2-phenylethyl](S)-2-[(2S)-2-acetylamino-3-methylvalerylamino]glutaramide]: the 50% inhibitory concentration (IC50) was 0.92 nM on matriptase (read-out: Matriptase IC50); 1.73 nM on TMPRSS2 (read-out: TMPRSS2 IC50); 30 nM at HGFA (read-out: HGFA IC50); 792 nM at Factor Xa; 0.14 nM at hepsin (read-out: Hepsin IC50).

Regarding `CC(=O)N[C@H]1Cc2ccc(cc2)OC/C=C\CNC(=O)C[C@@H](C(=O)N[C@@H](CCCNC(=N)N)C(=O)c2nc3ccccc3s2)NC(=O)[C@H](CC(C)C)NC1=O` [VD4054, N-[(S)-1-[(1,3-benzothiazol-2-yl)carbonyl]-4-guanidinobutyl]-(4Z,10S,13S,16S)-16-acetylamino-13-isobutyl-8,12,15-trioxo-2-oxa-7,11,14-triazabicyclo[16.2.2]docosa-1(20),4,18,21-tetraene-10-carboxamide], the IC50 at matriptase (read-out: Matriptase IC50) is 44 nM; at TMPRSS2 (read-out: TMPRSS2 IC50), 21.6 nM; at HGFA (read-out: HGFA IC50) it was greater than 20000 nM; on Factor Xa, 3180 nM; on hepsin (30 min incubation, Boc-QAR-AMC at Km, read-out: Hepsin IC50) it was 0.99 nM.

As for `CC(=O)NCC(=O)N[C@@H](CCC(N)=O)C(=O)N[C@@H](Cc1ccccc1)C(=O)N[C@@H](CCCNC(=N)N)C(=O)c1nc2ccccc2s1` [MM3122, N-[(S)-1-[N-(S)-1-[(1,3-benzothiazol-2-yl)carbonyl]-4-guanidinobutylcarbamoyl]-2-phenylethyl](S)-2-[(acetylaminomethyl)carbonylamino]glutaramide], the IC50 at matriptase (read-out: Matriptase IC50) amounted to 0.314 nM; at TMPRSS2 (read-out: TMPRSS2 IC50), 0.03 nM; on HGFA, 32.5 nM; on Factor Xa it was 700 nM; on hepsin (read-out: Hepsin IC50), 0.194 nM.

In the case of `CCC(C)[C@H](NC(C)=O)C(=O)N[C@@H](CCC(N)=O)C(=O)N[C@H](C(=O)N[C@@H](CCCNC(=N)N)C(=O)c1nc2ccccc2s1)C(C)C` (stereo partly drawn) [MM3180-2, N-[(S)-2-methyl-1-[N-(S)-1-[(1,3-benzothiazol-2-yl)carbonyl]-4-guanidinobutylcarbamoyl]propyl](S)-2-[(2S)-2-acetylamino-3-methylvalerylamino]glutaramide], the IC50 on matriptase worked out at 0.761 nM; at TMPRSS2 (read-out: TMPRSS2 IC50), 0.031 nM; at HGFA (read-out: HGFA IC50), 799 nM; at hepsin (read-out: Hepsin IC50) it was 0.106 nM.

For `CC(=O)N[C@@H](CO)C(=O)N[C@@H](Cc1cncn1COCc1ccccc1)C(=O)N[C@@H](CC(C)C)C(=O)N[C@H](CCCNC(=N)N)C(=O)c1nc2ccccc2s1` [MM4036-1, N-[(R)-1-[(1,3-benzothiazol-2-yl)carbonyl]-4-guanidinobutyl](S)-2-[(S)-2-[(S)-2-acetylamino-3-hydroxypropionylamino]-3-{1-[(benzyloxy)methyl]-5-imidazolyl}propionylamino]-4-methylvaleramide], the IC50 against matriptase is 139 nM; on TMPRSS2 (read-out: TMPRSS2 IC50), 102 nM; on HGFA (read-out: HGFA IC50), 1550 nM; at hepsin (read-out: Hepsin IC50) it was 1.47 nM.

Turning to `CCC(C)[C@H](NC(C)=O)C(=O)N[C@@H](CCC(=O)O)C(=O)N[C@@H](Cc1ccccc1)C(=O)N[C@@H](CCCNC(=N)N)C(=O)c1nc2ccccc2s1` (stereo partly drawn) [MM4037-2, (S)-4-[(2S)-2-acetylamino-3-methylvalerylamino]-4-[N-(S)-1-[N-(S)-1-[(1,3-benzothiazol-2-yl)carbonyl]-4-guanidinobutylcarbamoyl]-2-phenylethylcarbamoyl]butyric acid], the IC50 stood at 2.42 nM at matriptase, 0.109 nM on TMPRSS2 (read-out: TMPRSS2 IC50), 276 nM at HGFA (read-out: HGFA IC50) and 0.35 nM at hepsin (read-out: Hepsin IC50).

On to `CC(=O)N[C@@H](Cc1c[nH]c2ccccc12)C(=O)N[C@@H](CC(C)C)C(=O)N[C@@H](CCCNC(=N)N)C(=O)c1nc2ccc(C(=O)O)cc2s1` [PK-1-105, 2-[(S)-2-[(S)-2-[(S)-2-acetylamino-3-(3-indolyl)propionylamino]-4-methylvalerylamino]-5-guanidinovaleryl]-1,3-benzothiazole-6-carboxylic acid], for which the IC50 is 144 nM at matriptase (read-out: Matriptase IC50), 1.45 nM on TMPRSS2 (read-out: TMPRSS2 IC50), 98.3 nM on HGFA (read-out: HGFA IC50) and 0.362 nM on hepsin (read-out: Hepsin IC50).

`CC(=O)N[C@H]1Cc2ccc(cc2)Oc2cccc(c2)C[C@@H](C(=O)N[C@H](CCCNC(=N)N)C(=O)c2nc3ccccc3s2)NC(=O)[C@H](CC(C)C)NC1=O` [VD5064A, N-{(R)-1-[(1,3-benzothiazol-2-yl)carbonyl]-4-guanidinobutyl}-(9S,12S,15S)-15-acetylamino-12-isobutyl-11,14-dioxo-2-oxa-10,13-diazatricyclo[15.2.2.1^3,^7]docosa-1(19),3,5,7(22),17,20-hexaene-9-carboxamide]: the IC50 came out at 680 nM against matriptase, 261 nM at TMPRSS2 (read-out: TMPRSS2 IC50), 550 nM at HGFA (read-out: HGFA IC50) and 2.6 nM on hepsin (read-out: Hepsin IC50).

The IC50 is the midpoint of a concentration-inhibition curve.

These data come from patent US20250171495A1, “MUTLI-TARGETED SERINE PROTEASE INHIBITORS FOR TREATMENT OF CANCER AND VIRAL INFECTION” (Washington University, priority 2023, published 2025).
